Patent publication US4064169A, “Bis-(meta-amidinophenoxy)-compounds and pharmacologically acceptable acid addition salts thereof” (Eisai Co., Ltd., priority 1976, dated 1977)

Experiments:
Experiment in all cases: Antifungal Test (agar dilution M.I.C.)
Assay type in all cases: cell-based
Conditions in all cases: Table 2; 37° C., 3 days (72 hours)
[1] = test system: Candida albicans Yu-1200 IFM 4020
Experimental: (§1) Respective agar plates were prepared by dissolving compounds under test in aseptic water to make a two fold dilution series, taking each 1 milliliter of said diluted solutions and 9 ml of Sabouraud medium into a petri dish, and sufficiently admixing the same.
(§2) On the other hand, an inoculum was prepared by cultivating an examined fungus (microorganism) on the Sabouraud slant medium and suspending two loopful of the incubated fungus in 10 ml of sterilized physiological saline water.
(§3) One loopful of the inoculum was streaked on the above-mentioned agar plate. After the agar plate was incubated at a defined temperature for a predetermined period of time to determine the minimal inhibitory concentration (M.I.C.).
(§4) Incubation temperature:
(§5) Incubation time: 3 days (72 hours) and
(§6) Incubation time: 3 days (72 hours)
(§7) activity incubation conditions:
(§8) Incubation time 3 days (72 hours)
(§9) Incubation time 7 days (168 hours)
(§10) Incubation time 2 days (48 hours)

[2] = test system: Candida albicans AHU 3656
Experimental: as §1, §2, §3, §4, §5, §6, §7, §8, §9, §10

[3] = test system: Candida albicans NAKAGAWA IFM 4017
Experimental: as §1, §2, §3, §4, §5, §6, §7, §8, §9, §10

Measured: M.I.C.

C[C@@H]1[C@H](O)[C@@H](C)/C=C/C=C/CC/C=C/C=C/C=C/C=C/C(O[C@H]2O[C@H](C)[C@@H](O)[C@H](N)[C@@H]2O)CC2O[C@](O)(CC(O)C(O)CCC(O)CC(O)CC(O)CC(=O)O[C@H]1C)CC(O)C2C(=O)O (stereo partly drawn) [Nystatin, reference compound]
6.25 µg/mL: all assays above
